In patent US7595397B2, “Compounds which modulate the CB2 receptor” (Boehringer Ingelheim International GmbH, priority 2005, dated 2009):

Target: T1, human CB2R (Homo sapiens, UniProt P34972)
T1 construct: host or cells: CHO cells
Assay: CB2R mediated modulation of cAMP synthesis
Type: cell-based
Conditions: CHO cells expressing human CB2R; decrease of forskolin induced cAMP; found 'through the use of the above described assays'
Method: B. CB2R Mediated Modulation of cAMP Synthesis:
CHO cells expressing human CB2R (Euroscreen) were plated at a density of 5000 cells per well in 384 well plates and incubated overnight at 37° C. After removing the media, the cells were treated with test compounds diluted in stimulation buffer containing 1 mM IBMX, 0.25% BSA and 10 uM Forskolin. The assay was incubated for 30 minutes at 37° C. Cells were lysed and the cAMP concentration was measured using DiscoverX-XS cAMP kit, following the manufacturer's protocol. In this setting, agonists will decrease forskolin induced production of cAMP while inverse agonists will further increase forskolin induced production of cAMP. EC50 of agonists were calculated as follows. The maximal amount of cAMP produced by forskolin compared to the level of cAMP inhibited by 1 uM CP55940 is defined as 100%. The EC50 value of each test compound was determined as the concentration at which 50% of the forskolin-stimulated cAMP synthesis was inhibited. Data was analyzed using a four-parameter logistic model. (Model 205 of XLfit 4.0).

T1 sequence (P34972 whole entry): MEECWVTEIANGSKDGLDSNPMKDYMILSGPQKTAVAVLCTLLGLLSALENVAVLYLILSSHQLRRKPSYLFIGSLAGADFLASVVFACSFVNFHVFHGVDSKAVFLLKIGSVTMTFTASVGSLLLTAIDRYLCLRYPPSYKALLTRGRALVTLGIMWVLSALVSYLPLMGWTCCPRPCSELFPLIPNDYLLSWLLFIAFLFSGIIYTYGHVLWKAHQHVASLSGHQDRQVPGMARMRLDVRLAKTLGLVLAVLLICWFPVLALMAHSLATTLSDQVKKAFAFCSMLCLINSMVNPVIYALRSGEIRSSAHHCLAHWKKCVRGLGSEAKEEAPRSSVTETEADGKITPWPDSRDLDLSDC

SMILES | agonistic activity
FC(F)(F)c1ccccc1-c1ccc(CN2CCO[C@@H](c3ccccc3)C2)cn1 [(S)-2-Phenyl-4-[6-(2-trifluoromethyl-phenyl)-pyridin-3-ylmethyl]-morpholine] | agonistic activity
Clc1sccc1-c1ccc(CN2CCO[C@@H](c3ccccc3)C2)cc1 [Example 191, (S)-4-[4-(2-Chloro-thiophen-3-yl)-benzyl]-2-phenyl-morpholine] | agonistic activity
Clc1cccc(-c2ccc(CN3CCO[C@@H](c4ccccc4)C3)cn2)c1 [Example 189, (S)-4-[6-(3-Chloro-phenyl)-pyridin-3-ylmethyl]-2-phenyl-morpholine] | agonistic activity
Clc1cccc(-c2ccc(CN3CCOC(c4ccccc4)C3)cc2)c1Cl (centres unmarked) [4-(2′,3′-Dichloro-biphenyl-4-ylmethyl)-2-phenyl-morpholine] | agonistic activity
c1ccc(C2CN(Cc3ccc(-c4ccsc4)cc3)CCO2)cc1 (centres unmarked) [2-Phenyl-4-(4-thiophen-3-yl-benzyl)-morpholine] | agonistic activity
FC(F)(F)c1ccccc1-c1ccc(CN2CCNC(Cc3ccccc3)C2)cc1 (centres unmarked) [3-Benzyl-1-(2′-trifluoromethyl-biphenyl-4-ylmethyl)-piperazine] | agonistic activity
CCOc1ccccc1-c1ccc(CN2CCOC(c3ccccc3)C2)cc1 (centres unmarked) [4-(2′-Ethoxy-biphenyl-4-ylmethyl)-2-phenyl-morpholine] | agonistic activity
O=C(c1ccccc1)N1CCN(Cc2ccc(-c3ccccc3C(F)(F)F)cc2)CC1Cc1ccccc1 (centres unmarked) [Phenyl-[2-benzyl-4-(2′-trifluoromethyl-biphenyl-4-ylmethyl)-piperazin-1-yl]-methanone] | agonistic activity
Cc1ccc(Cl)c(-c2ccc(CN3CCOC(c4ccccc4)C3)cc2)c1 (centres unmarked) [4-(2′-Chloro-5′-methyl-biphenyl-4-ylmethyl)-2-phenyl-morpholine] | agonistic activity
c1ccc(-c2ccc(CN3CCO[C@@H](c4ccccc4)C3)cn2)cc1 [Example 188, (S)-2-Phenyl-4-(6-phenyl-pyridin-3-ylmethyl)-morpholine] | agonistic activity
N#Cc1ccccc1-c1ccc(CN2CCO[C@@H](c3ccccc3)C2)cc1 [Example 192, 4′-((S)-2-Phenyl-morpholin-4-ylmethyl)-biphenyl-2-carbonitrile] | agonistic activity
FC(F)(F)c1ccccc1-c1ccc(CN2CCOC(c3ccccc3)C2)cc1 (centres unmarked) [2-Phenyl-4-(2′-trifluoromethyl-biphenyl-4-ylmethyl)-morpholine] | agonistic activity
N#Cc1ccccc1-c1ccc(CN2CCOC(c3ccccc3)C2)cc1 (centres unmarked) [4′-(2-Phenyl-morpholin-4-ylmethyl)-biphenyl-2-carbonitrile] | agonistic activity
Clc1sccc1-c1ccc(CN2CCOC(c3ccccc3)C2)cc1 (centres unmarked) [4-[4-(2-Chloro-thiophen-3-yl)-benzyl]-2-phenyl-morpholine] | agonistic activity
O=S(=O)(c1ccccc1)N1CCN(Cc2ccc(-c3ccccc3C(F)(F)F)cc2)CC1c1ccccc1 (centres unmarked) [1-Benzenesulfonyl-2-phenyl-4-(2′-trifluoromethyl-biphenyl-4-ylmethyl)-piperazine] | agonistic activity
c1ccc(C[C@H]2CN(Cc3ccc(-c4ccccc4)nc3)CCN2)cc1 [Example 186, (S)-3-Benzyl-1-(6-phenyl-pyridin-3-ylmethyl)-piperazine] | agonistic activity
FC(F)(F)c1ccccc1-c1ccc(CN2CCOCC2)cc1 [4-(2′-Trifluoromethyl-biphenyl-4-ylmethyl)-morpholine] | agonistic activity
FC(F)(F)c1ccccc1-c1ccc(CN2CCCC(c3ccccc3)C2)cc1 (centres unmarked) [3-Phenyl-1-(2′-trifluoromethyl-biphenyl-4-ylmethyl)-piperidine] | agonistic activity
Clc1ccccc1-c1ccc(CN2CCOC(c3ccccc3)C2)cc1 (centres unmarked) [4-(2′-Chloro-biphenyl-4-ylmethyl)-2-phenyl-morpholine] | agonistic activity
Clc1ccccc1-c1ccc(CN2CCCC(c3ccccc3)C2)cc1 (centres unmarked) [1-(2′-Chloro-biphenyl-4-ylmethyl)-3-phenyl-piperidine] | agonistic activity
Clc1ccccc1-c1ccc(CN2CCO[C@@H](c3ccccc3)C2)cc1 [Example 193, (S)-4-(2′-Chloro-biphenyl-4-ylmethyl)-2-phenyl-morpholine] | agonistic activity
c1ccc(C2CN(Cc3ccc(-c4ccccn4)cc3)CCO2)cc1 (centres unmarked) [2-Phenyl-4-(4-pyridin-2-yl-benzyl)-morpholine] | agonistic activity
Clc1cccc(-c2ccc(CN3CCO[C@@H](c4ccccc4)C3)cc2)c1Cl [Example 183, (S)-4-(2′,3′-Dichloro-biphenyl-4-ylmethyl)-2-phenyl-morpholine] | agonistic activity
